Where “and” joins values, the source holds several entries; their conditions need not be identical. Identical values can stand only once. Toxic doses and inconclusive results are not listed.

This assay has as its system BDF1 mice, P388 leukemia ip, median survival T/C. The experiment in a line: NCI In Vivo Anticancer Drug Screen. Data for tumor model P388 Leukemia (intraperitoneal) in B6D2F1 (BDF1) mice. The following applies: endpoint: median survival time, higher = longer survival. The essentials: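 In tumour-bearing mice, survival after compound treatment is set against the vehicle group and given as a quotient.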

Where [1] appears, read: dose: 25.0 mg/kg/injection, schedule: Q01DX009 (ip), vehicle: Klucel (hydroxypropylcellulose) (HPC).
Where [2] appears, read: dose: 100.0 mg/kg/injection, schedule: Q01DX009 (ip), vehicle: saline with Tween-80.
The mark [3] stands for this setting: dose: 200.0 mg/kg/injection, schedule: Q01DX009 (ip), vehicle: saline with Tween-80.
Setting [4] is: dose: 200.0 mg/kg/injection, schedule: Q04DX003 (ip), vehicle: saline with Tween-80.
Setting [5] is: dose: 400.0 mg/kg/injection, schedule: Q04DX003 (ip), vehicle: saline with Tween-80.
[6] abbreviates: dose: 25.0 mg/kg/injection, schedule: Q01DX009 (ip), vehicle: saline with Tween-80.
The mark [7] stands for this setting: dose: 50.0 mg/kg/injection, schedule: Q01DX009 (ip), vehicle: saline with Tween-80.
[8] abbreviates: dose: 50.0 mg/kg/injection, schedule: Q01DX009 (ip), vehicle: Klucel (hydroxypropylcellulose) (HPC).
[9] abbreviates: dose: 100.0 mg/kg/injection, schedule: Q01DX009 (ip), vehicle: Klucel (hydroxypropylcellulose) (HPC).
Setting [10] is: dose: 100.0 mg/kg/injection, schedule: Q04DX003 (ip), vehicle: Klucel (hydroxypropylcellulose) (HPC).
Setting [11] is: dose: 200.0 mg/kg/injection, schedule: Q01DX009 (ip), vehicle: Klucel (hydroxypropylcellulose) (HPC).
The mark [12] stands for this setting: dose: 200.0 mg/kg/injection, schedule: Q04DX003 (ip), vehicle: Klucel (hydroxypropylcellulose) (HPC).
[13] abbreviates: dose: 400.0 mg/kg/injection, schedule: Q04DX003 (ip), vehicle: Klucel (hydroxypropylcellulose) (HPC).
Setting [14] is: dose: 100.0 mg/kg/injection, schedule: Q01DX009 (ip), vehicle: saline.
The mark [15] stands for this setting: dose: 200.0 mg/kg/injection, schedule: Q01DX009 (ip), vehicle: saline.
Setting [16] is: dose: 12.5 mg/kg/injection, schedule: Q01DX009 (ip), vehicle: Klucel (hydroxypropylcellulose) (HPC).
Setting [17] is: dose: 50.0 mg/kg/injection, schedule: Q01DX009 (ip), vehicle: saline.
The mark [18] stands for this setting: dose: 100.0 mg/kg/injection, schedule: Q04DX003 (ip), vehicle: saline with Tween-80.

For the compound `BrCc1ccc(CBr)c(Br)c1`, the T/C is, setting by setting: (dose: 6.0 mg/kg/injection, schedule: Q01DX009 (ip), vehicle: Klucel (hydroxypropylcellulose) (HPC)) 89 % of control; (dose: 6.25 mg/kg/injection, schedule: Q04DX003 (ip), vehicle: Klucel (hydroxypropylcellulose) (HPC)) 92 % of control; (dose: 12.0 mg/kg/injection, schedule: Q01DX009 (ip), vehicle: Klucel (hydroxypropylcellulose) (HPC)) 103 % of control; (dose: 12.5 mg/kg/injection, schedule: Q04DX003 (ip), vehicle: Klucel (hydroxypropylcellulose) (HPC)) 96 % of control; under setting [1], 96 % of control; (dose: 25.0 mg/kg/injection, schedule: Q04DX003 (ip), vehicle: Klucel (hydroxypropylcellulose) (HPC)) 100 % of control.
Consider `O=Nc1c(S(=O)(=O)O)cc2cc(S(=O)(=O)O)cc(O)c2c1O.[Cu+2]`, for which the T/C was 97 % of control (dose: 1.25 mg/kg/injection, schedule: Q04DX003 (ip), vehicle: saline); 91 % of control (dose: 2.5 mg/kg/injection, schedule: Q04DX003 (ip), vehicle: saline); 115 % of control (dose: 5.0 mg/kg/injection, schedule: Q04DX003 (ip), vehicle: saline).
Regarding `Cc1nn2c(=O)[nH]cnc2c1Cl`, the T/C runs as follows: under setting [2], 93 % of control; under setting [3], 100 % of control; under setting [4], 95 % of control; under setting [5], 109 % of control.
Consider `C1CCC2(CC1)OCCO2`, for which the T/C under setting [6] was 87 % of control, the T/C under setting [7] is 97 % of control, the T/C under setting [2] is 100 % of control and the T/C under setting [3] is 106 % of control.
`N#C/C(=C1C=C(Br)/C(=N\O)C=C\1Cl)c1ccc(Cl)cc1`: the T/C under setting [1] is 115 % of control; the T/C under setting [8] is 110 % of control; the T/C under setting [9] is 115 % of control and 123 % of control; the T/C under setting [10] is 100 % of control; the T/C (dose: 150.0 mg/kg/injection, schedule: Q01DX009 (ip), vehicle: Klucel (hydroxypropylcellulose) (HPC)) is 109 % of control; the T/C under setting [11] is 123 % of control. Further, the T/C runs as follows: under setting [12], 118 % of control; (dose: 225.0 mg/kg/injection, schedule: Q01DX009 (ip), vehicle: Klucel (hydroxypropylcellulose) (HPC)) 109 % of control; under setting [13], 113 % of control.
As to `CC1(C)O[C@]2(C)CC[C@@H]1[C@@H](O)[C@@H]2N1CCOCC1`, the T/C (dose: 50.0 mg/kg/injection, schedule: Q01DX005 (ip), vehicle: saline) was 108 % of control; the T/C (dose: 100.0 mg/kg/injection, schedule: Q01DX005 (ip), vehicle: saline) is 106 % of control; the T/C (dose: 200.0 mg/kg/injection, schedule: Q01DX005 (ip), vehicle: saline) was 104 % of control.
Take `CC1C(N2CCOCC2)CS1(=O)=O` (centres undefined): the T/C was 100 % of control under setting [9]; 115 % of control under setting [11]; 105 % of control (dose: 400.0 mg/kg/injection, schedule: Q01DX009 (ip), vehicle: Klucel (hydroxypropylcellulose) (HPC)).
On to `COc1cc(OC)c(OC)cc1/C=C/c1cc[n+](C)c2ccccc12`, for which the T/C reads like this: (dose: 6.25 mg/kg/injection, schedule: Q01DX009 (ip), vehicle: saline) 111 % of control; (dose: 12.5 mg/kg/injection, schedule: Q01DX009 (ip), vehicle: saline) 119 % of control; (dose: 16.0 mg/kg/injection, schedule: Q01DX009 (ip), vehicle: saline) 111 % of control; (dose: 35.0 mg/kg/injection, schedule: Q01DX009 (ip), vehicle: saline) 119 % of control.
For the compound `O=[N+]([O-])c1ccccc1C=Nc1ccccc1`, the T/C was 100 % of control (dose: 100.0 mg/kg/injection, schedule: Q01DX001 (ip), vehicle: Klucel (hydroxypropylcellulose) (HPC)); 105 % of control under setting [14]; 100 % of control under setting [10]; 104 % of control (dose: 200.0 mg/kg/injection, schedule: Q01DX001 (ip), vehicle: Klucel (hydroxypropylcellulose) (HPC)); 90 % of control under setting [15]; 110 % of control under setting [12]. The T/C by setting is: (dose: 400.0 mg/kg/injection, schedule: Q01DX001 (ip), vehicle: Klucel (hydroxypropylcellulose) (HPC)) 95 % of control; (dose: 400.0 mg/kg/injection, schedule: Q01DX009 (ip), vehicle: saline) 90 % of control; under setting [13], 100 % of control.
Turning to `O=C(NNC(=O)C12CC3CC(CC(C3)C1)C2)c1ccncc1`, the T/C is 96 % of control under setting [7], 101 % of control under setting [2] and 92 % of control under setting [3].
Regarding `CCCCCCCCCCCCCCCCOc1ccc(Cl)cc1`, the T/C reads like this: (dose: 25.0 mg/kg/injection, schedule: Q01DX001 (ip), vehicle: saline sonified) 109 % of control; (dose: 50.0 mg/kg/injection, schedule: Q01DX001 (ip), vehicle: saline sonified) 100 % of control.
For the compound `NC(=S)NCCO`, the T/C by setting is: (dose: 100.0 mg/kg/injection, schedule: Q01DX001 (ip), vehicle: saline) 104 % of control; (dose: 200.0 mg/kg/injection, schedule: Q01DX001 (ip), vehicle: saline) 95 % of control; (dose: 400.0 mg/kg/injection, schedule: Q01DX001 (ip), vehicle: saline) 100 % of control.
On to `Cc1ccc(NC(=O)c2ccccc2C(=O)O)cc1Cl`, for which the T/C is 95 % of control under setting [10], 95 % of control under setting [12] and 91 % of control under setting [13].
As to `Nc1nc(N)c2cc(NCc3ccc(Br)cc3)ccc2n1`, the T/C is 105 % of control (dose: 3.12 mg/kg/injection, schedule: Q01DX009 (ip), vehicle: Klucel (hydroxypropylcellulose) (HPC)); 100 % of control (dose: 6.25 mg/kg/injection, schedule: Q01DX009 (ip), vehicle: Klucel (hydroxypropylcellulose) (HPC)); 95 % of control under setting [16].
On to `CN(C)C1Cc2ccccc2C1OC(=O)c1ccccc1` (centres undefined), for which the T/C runs as follows: under setting [17], 103 % of control; under setting [15], 91 % of control.
For `COC(=O)N1c2ccc(OC)cc2C=CC1C#N` (centres undefined), the T/C under setting [2] is 100 % of control; the T/C under setting [3] is 100 % of control; the T/C (dose: 400.0 mg/kg/injection, schedule: Q01DX009 (ip), vehicle: saline with Tween-80) is 100 % of control.
Turning to `C[N+](C)(C)/N=C1\CCc2ccccc21`, the T/C was 95 % of control (dose: 50.0 mg/kg/injection, schedule: Q04DX003 (ip), vehicle: saline with Tween-80); 95 % of control under setting [18]; 95 % of control under setting [4].
For `COc1cc2c(cc1OC)C1CNCC1C(c1cc(OC)c(OC)c(OC)c1)C2` (centres undefined), the T/C reads like this: under setting [16], 105 % of control; under setting [1], 100 % of control; under setting [8], 100 % of control; under setting [9], 90 % of control.
Take `O=C1C=C(N2CC2)C(=O)C(N2CC2)=C1N1CC1`: the T/C (dose: 0.02 mg/kg/injection, schedule: Q01DX009 (ip), vehicle: saline) was 265 % of control and 328 % of control; the T/C (dose: 0.04 mg/kg/injection, schedule: Q01DX009 (ip), vehicle: saline) is 98 % of control.
With `O=C(NC(=O)c1c(F)cccc1F)Nc1ccc(Cl)nc1`, under setting [2], the T/C is 91 % of control.
For `O=S(=O)(OC1=CCCCC1)C(F)(F)F`, the T/C is, setting by setting: under setting [17], 104 % of control; under setting [14], 107 % of control; under setting [15], 109 % of control.
With `CCN(C)c1ccc(/C=C/c2ccnc3ccccc23)cc1`, the T/C (dose: 12.5 mg/kg/injection, schedule: Q01DX009 (ip), vehicle: saline with Tween-80) was 115 % of control; the T/C under setting [6] is 91 % of control; the T/C under setting [7] was 99 % of control.
With `CC1(C)c2c3ccccc3cc3cccc(c23)[S+]1c1ccccc1` (centres undefined), the T/C (dose: 10.0 mg/kg/injection, schedule: Q01DX009 (ip), vehicle: saline with Tween-80) is 120 % of control.
Regarding `N=C1CCCC1C(=S)SC(CC(N)=O)C(=O)O` (centres undefined), the T/C was 108 % of control under setting [7], 112 % of control under setting [2] and 112 % of control under setting [3].
`O=[N+]([O-])c1ccc2nnn(OC3CCCC3)c2c1`: the T/C runs as follows: under setting [18], 98 % of control; under setting [4], 101 % of control; under setting [5], 88 % of control.
On to `Cn1c(Cc2ccccc2)c([N+](=O)[O-])c(=O)n(C)c1=O`, for which the T/C is 110 % of control under setting [7] and 113 % of control under setting [2].

For the origin of these results see PubChem BioAssay AID328 (DTP/NCI, 2004).
